From US11566007B2, “Ras inhibitors” (Revolution Medicines, Inc., priority 2019, dated 2023)

Key:
[1] = molecular target: KRAS WT (Homo sapiens (Human), UniProt P01116+P62937); assay: Ras-Raf (BRAF RBD) disruption / FRET / MOA assay, KRAS WT; type: biochemical; details: read-out: IC50* KRAS WT FRET data
How it was run: (§1)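 TR-FRET read-out: a drop in ratio relative to DMSO wells marks disruption of the Ras:RAF complex, reported as IC50. Compounds (3-fold series, 10 points, top 30 μM final) incubated 3 h at 25° C before Eu-anti-His 10 nM and APC-anti-GST 50 nM, 1.5 h more.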

[2] = molecular target: KRAS G12S (Homo sapiens (Human), UniProt P01116+P62937, G12S); assay: Ras-Raf (BRAF RBD) disruption / FRET / MOA assay, KRAS G12S; type: biochemical; details: Ras-Raf disruption/FRET/MOA assay; class symbols; read-out: KRAS G12S FRET data IC50
Sequence of KRAS G12S (P01116-2 other isoform, or with tags, fused parts or gaps G12S): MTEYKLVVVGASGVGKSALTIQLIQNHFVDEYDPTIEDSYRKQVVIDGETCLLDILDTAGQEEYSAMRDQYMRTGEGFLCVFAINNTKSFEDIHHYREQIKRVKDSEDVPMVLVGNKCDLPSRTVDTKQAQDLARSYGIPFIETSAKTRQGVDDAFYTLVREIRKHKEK
Sequence of KRAS G12S (P62937 whole entry): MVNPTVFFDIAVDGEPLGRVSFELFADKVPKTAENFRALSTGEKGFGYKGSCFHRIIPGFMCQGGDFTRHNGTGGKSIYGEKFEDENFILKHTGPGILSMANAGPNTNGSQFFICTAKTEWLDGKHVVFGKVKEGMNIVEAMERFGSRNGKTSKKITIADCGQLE
How it was run: as §1

[3] = molecular target: KRAS G13D (Homo sapiens (Human), UniProt P01116+P62937, G13D); assay: Ras-Raf (BRAF RBD) disruption / FRET / MOA assay, KRAS G13D; type: biochemical; details: read-out: IC50* KRAS G13D FRET data
Sequence of KRAS G13D (P01116-2 other isoform, or with tags, fused parts or gaps G13D): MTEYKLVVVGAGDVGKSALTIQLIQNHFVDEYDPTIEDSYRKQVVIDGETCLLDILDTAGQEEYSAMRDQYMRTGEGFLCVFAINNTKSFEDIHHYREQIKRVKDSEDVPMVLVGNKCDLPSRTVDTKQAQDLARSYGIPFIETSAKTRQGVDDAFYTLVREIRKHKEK
Sequence of KRAS G13D (P62937 whole entry): as the sequence (P62937 whole entry) above
How it was run: as §1

[4] = molecular target: K-Ras G12C (Homo sapiens (Human), UniProt P01116+P62937, G12C); assay: Ras-Raf (BRAF RBD) disruption / FRET / MOA assay, KRAS G12C; type: biochemical; details: KRAS G12C; Ras-Raf disruption/FRET/MOA assay; read-out: IC50* KRAS G12C FRET data
Sequence of K-Ras G12C (P01116-2 other isoform, or with tags, fused parts or gaps G12C): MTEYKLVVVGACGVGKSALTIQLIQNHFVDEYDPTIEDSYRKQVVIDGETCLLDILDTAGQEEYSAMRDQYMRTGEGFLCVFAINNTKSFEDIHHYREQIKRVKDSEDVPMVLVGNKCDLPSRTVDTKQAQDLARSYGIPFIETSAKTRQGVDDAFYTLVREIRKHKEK
Sequence of K-Ras G12C (P62937 whole entry): as the sequence (P62937 whole entry) above
How it was run: as §1

[5] = molecular target: KRAS G12V (Homo sapiens (Human), UniProt P01116+P62937, G12V); assay: Ras-Raf (BRAF RBD) disruption / FRET / MOA assay, KRAS G12V; type: biochemical; details: read-out: IC50* KRAS G12V FRET data
Sequence of KRAS G12V (P01116-2 other isoform, or with tags, fused parts or gaps G12V): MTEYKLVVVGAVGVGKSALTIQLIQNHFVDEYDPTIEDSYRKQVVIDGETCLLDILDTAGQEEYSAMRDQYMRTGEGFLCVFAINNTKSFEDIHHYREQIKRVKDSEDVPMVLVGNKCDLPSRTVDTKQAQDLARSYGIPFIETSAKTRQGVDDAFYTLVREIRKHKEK
Sequence of KRAS G12V (P62937 whole entry): as the sequence (P62937 whole entry) above
How it was run: as §1

[6] = molecular target: KRAS G12D (Homo sapiens (Human), UniProt P01116+P62937, G12D); assay: Ras-Raf (BRAF RBD) disruption / FRET / MOA assay, KRAS G12D; type: biochemical; details: Ras-Raf disruption/FRET/MOA assay; class symbols; read-out: KRAS G12D FRET data IC50
Sequence of KRAS G12D (P01116-2 other isoform, or with tags, fused parts or gaps G12D): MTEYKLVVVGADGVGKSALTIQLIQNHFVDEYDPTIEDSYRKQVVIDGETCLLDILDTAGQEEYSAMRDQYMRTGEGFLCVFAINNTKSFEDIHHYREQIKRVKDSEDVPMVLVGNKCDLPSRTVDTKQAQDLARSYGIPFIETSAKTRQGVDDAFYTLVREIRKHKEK
Sequence of KRAS G12D (P62937 whole entry): as the sequence (P62937 whole entry) above
How it was run: as §1

[7] = molecular target: NRAS G12C (Homo sapiens (Human), UniProt P01111+P62937, G12C); assay: Ras-Raf (BRAF RBD) disruption / FRET / MOA assay, NRAS G12C; type: biochemical; details: read-out: IC50* NRAS G12C FRET data
Sequence of NRAS G12C (P01111 whole entry G12C): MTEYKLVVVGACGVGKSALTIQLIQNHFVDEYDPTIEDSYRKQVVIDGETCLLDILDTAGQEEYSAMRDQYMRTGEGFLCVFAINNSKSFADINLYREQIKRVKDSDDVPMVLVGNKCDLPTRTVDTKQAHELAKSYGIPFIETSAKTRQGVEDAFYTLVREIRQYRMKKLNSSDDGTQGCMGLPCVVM
Sequence of NRAS G12C (P62937 whole entry): as the sequence (P62937 whole entry) above
How it was run: as §1

[8] = system: NCI-H358 (K-Ras G12C); assay: CellTiter-Glo cell viability assay, NCI-H358; type: cell-based, human; details: Homo sapiens, NCI-H358, 120 h, NCI-H358, 5-day treatment; class symbols; read-out: Additional H358 Cell Viability assay data (K-Ras G12C, IC50)
How it was run: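 Compounds dispensed directly onto seeded K-Ras mutant cells; plates read on day 5 after ~30 min equilibration to room temperature, by CellTiter-Glo luminescence. Signal normalized as (sample/mean DMSO)×100, then fitted to a four-parameter logistic curve.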

[9] = molecular target: K-Ras G13C (Homo sapiens (Human), UniProt P01116+P62937, G13C); assay: Ras-Raf (BRAF RBD) disruption / FRET / MOA assay, KRAS G13C; type: biochemical; details: KRAS G13C; Ras-Raf disruption/FRET/MOA assay; read-out: IC50* KRAS G13C FRET data
Sequence of K-Ras G13C (P01116-2 other isoform, or with tags, fused parts or gaps G13C): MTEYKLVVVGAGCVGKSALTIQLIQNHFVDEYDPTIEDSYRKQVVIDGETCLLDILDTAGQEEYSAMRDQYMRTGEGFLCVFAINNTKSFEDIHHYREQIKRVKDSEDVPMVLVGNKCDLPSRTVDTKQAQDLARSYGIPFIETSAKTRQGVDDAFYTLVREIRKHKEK
Sequence of K-Ras G13C (P62937 whole entry): as the sequence (P62937 whole entry) above
How it was run: as §1

[10] = system: NCI-H358 cells (K-Ras G12C); assay: Potency assay: pERK in NCI-H358 cells; type: cell-based, human; details: Homo sapiens, NCI-H358; H358 KRAS G12C; read-out: pERK EC50
How it was run: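 pERK decrease read by AlphaLISA SureFire p-ERK1/2 or In-Cell Western after 4 h compound exposure at 37 °C, 5% CO2.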

Sequence of KRAS WT (P01116-2 other isoform, or with tags, fused parts or gaps): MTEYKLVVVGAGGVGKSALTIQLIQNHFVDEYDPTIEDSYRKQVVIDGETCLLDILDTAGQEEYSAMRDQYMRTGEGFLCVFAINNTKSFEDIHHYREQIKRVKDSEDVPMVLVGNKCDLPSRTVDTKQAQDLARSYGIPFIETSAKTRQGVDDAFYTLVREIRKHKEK
Sequence of KRAS WT (P62937 whole entry): as the sequence (P62937 whole entry) above

Structure (SMILES) | IC50 [1] | IC50 [2] | IC50 [3] | IC50 [4] | IC50 [5] | IC50 [6] | IC50 [7] | IC50 [8] | IC50 [9] | EC50 [10]
C=CC(=O)N1CC[C@H](C(=O)N(C)[C@H](C(=O)N[C@H]2Cc3cccc(c3)-c3ccc4c(c3)c(c(-c3cccnc3[C@@H]3CCCO3)n4CC)CC(C)(C)COC(=O)[C@@H]3CCCN(N3)C2=O)C(C)C)C1 (atropisomer, axis not shown) [Example A512] | 1000 to 10000 nM | 1000 to 10000 nM | > 10000 nM | 100 to 1000 nM | 1000 to 10000 nM | > 10000 nM | 100 to 1000 nM | 10 to 100 nM | 1000 to 10000 nM | < 5000 nM
CCn1c(-c2cccnc2[C@H](C)OC)c2c3cc(ccc31)-c1csc(n1)C[C@H](NC(=O)[C@H](C(C)C)N1CCC3(CN(C(=O)C#CC(C)(C)N(C)C)C3)C1=O)C(=O)N1CCC[C@H](N1)C(=O)OCC(C)(C)C2 (atropisomer, axis not shown) [Example A323] | > 10000 nM | > 10000 nM | > 10000 nM | < 10 nM | > 10000 nM | > 10000 nM | < 10 nM | < 10 nM | 100 to 1000 nM | < 5000 nM
C=CC(=O)N1CCCN(C(=O)N(C)[C@H](C(=O)N[C@H]2Cc3cc(O)cc(c3)-c3ccc4c(c3)c(c(-c3cccnc3[C@H](C)OC)n4CC)CC(C)(C)COC(=O)[C@@H]3CCCN(N3)C2=O)C(C)C)CC1 (atropisomer, axis not shown) [Example A265] | 10 to 100 nM | 10 to 100 nM | 10 to 100 nM | 10 to 100 nM | 10 to 100 nM | 10 to 100 nM | 10 to 100 nM | 10 to 100 nM | 10 to 100 nM | < 5000 nM
C=CC(=O)N1CC2(C1)CN(C(=O)N(C)[C@H](C(=O)N[C@H]1Cc3nc(cs3)-c3ccc4c(c3)c(c(-c3cccnc3[C@H](C)OC)n4CC)CC(C)(C)COC(=O)[C@@H]3CCCN(N3)C1=O)C(C)C)C2 (atropisomer, axis not shown) [Example A419] | 100 to 1000 nM | 100 to 1000 nM | 1000 to 10000 nM | 100 to 1000 nM | 100 to 1000 nM | 1000 to 10000 nM | 10 to 100 nM | < 10 nM | 100 to 1000 nM | < 5000 nM
CCn1c(-c2cnccc2C(C)C)c2c3cc(ccc31)-c1cc(O)cc(c1)C[C@H](NC(=O)[C@H](C(C)C)N(C)C(=O)[C@H]1CCN(C(=O)C#CCN(C)C)C1)C(=O)N1CCC[C@H](N1)C(=O)OCC(C)(C)C2 [Example A141] | 100 to 1000 nM | 100 to 1000 nM | 100 to 1000 nM | < 10 nM | 100 to 1000 nM | 1000 to 10000 nM | < 10 nM | < 10 nM | 10 to 100 nM | < 5000 nM
C=CC(=O)N1CCC(C(=O)N(C)[C@H](C(=O)N[C@H]2Cc3cc(O)cc(c3)-c3ccc4c(c3)c(c(-c3cccnc3[C@H](C)OC)n4CC)CC(C)(C)COC(=O)[C@@H]3CCCN(N3)C2=O)C(C)C)CC1 (atropisomer, axis not shown) [Example A260] | 10 to 100 nM | 10 to 100 nM | 10 to 100 nM | 10 to 100 nM | 100 to 1000 nM | 100 to 1000 nM | 10 to 100 nM | < 10 nM | 10 to 100 nM | < 5000 nM
C=CC(=O)N1CCN(C(=O)N(C)[C@H](C(=O)N[C@H]2Cc3nc(cs3)-c3ccc4c(c3)c(c(-c3cccnc3[C@H](C)OC)n4CC)CC(C)(C)COC(=O)[C@@H]3CCCN(N3)C2=O)C(C)C)C2(CC2)C1 (atropisomer, axis not shown) [Example A395] | 100 to 1000 nM | 100 to 1000 nM | 100 to 1000 nM | 100 to 1000 nM | 100 to 1000 nM | 1000 to 10000 nM | 100 to 1000 nM | < 10 nM | 100 to 1000 nM | < 5000 nM
CCn1c(-c2cccnc2[C@H](C)OC)c2c3cc(ccc31)-c1cc(O)cc(c1)C[C@H](NC(=O)[C@H](C(C)C)N1CCC3(CCN(C(=O)/C=C/CN(C)C)CC3)C1=O)C(=O)N1CCC[C@H](N1)C(=O)OCC(C)(C)C2 (atropisomer, axis not shown) [Example A267] | 100 to 1000 nM | 100 to 1000 nM | 10 to 100 nM | 10 to 100 nM | 100 to 1000 nM | 1000 to 10000 nM | 10 to 100 nM | 10 to 100 nM | 10 to 100 nM | < 5000 nM
CCn1c(-c2cccnc2[C@H](C)OC)c2c3cc(ccc31)-c1cc(cc(C(F)F)c1)C[C@H](NC(=O)[C@H](C1CCCC1)N(C)C(=O)[C@H]1CCN(C(=O)C#CC(C)(C)N3CCC3)C1)C(=O)N1CCC[C@H](N1)C(=O)OCC(C)(C)C2 (atropisomer, axis not shown) [Example A456] | 1000 to 10000 nM | 1000 to 10000 nM | 1000 to 10000 nM | 10 to 100 nM | 1000 to 10000 nM | 1000 to 10000 nM | 10 to 100 nM | < 10 nM | 1000 to 10000 nM | < 5000 nM
CCn1c(-c2cccnc2[C@H](C)OC)c2c3cc(ccc31)-c1cccc(c1)C[C@H](NC(=O)CCOC1CN(C(=O)C#CC(C)(C)N(C)C)C1)C(=O)N1CCC[C@H](N1)C(=O)OCC(C)(C)C2 (atropisomer, axis not shown) [Example A448] | > 10000 nM | > 10000 nM | > 10000 nM | 10 to 100 nM | > 10000 nM | > 10000 nM | 10 to 100 nM | 10 to 100 nM | > 10000 nM | < 5000 nM
CCn1c(-c2cccnc2[C@H](C)OC)c2c3cc(ccc31)-c1cc(O)cc(c1)C[C@H](NC(=O)[C@H](C(C)C)N(C)C(=O)N1CCCN(C(=O)/C=C/CN(C)C)CC1)C(=O)N1CCC[C@H](N1)C(=O)OCC(C)(C)C2 (atropisomer, axis not shown) [Example A264] | 10 to 100 nM | 10 to 100 nM | 10 to 100 nM | 10 to 100 nM | 10 to 100 nM | 10 to 100 nM | 10 to 100 nM | 10 to 100 nM | 10 to 100 nM | < 5000 nM
CCn1c(-c2cccnc2[C@H](C)OC)c2c3cc(ccc31)-c1csc(n1)C[C@H](NC(=O)[C@H](C(C)C)N(C)C(=O)[C@H]1CCN(C(=O)C#CC(C)(C)N(C)C)C1)C(=O)N1CCC[C@H](N1)C(=O)OCC(C)(C)C2 (atropisomer, axis not shown) [Example A291] | 1000 to 10000 nM | 1000 to 10000 nM | > 10000 nM | < 10 nM | 1000 to 10000 nM | > 10000 nM | 10 to 100 nM | < 10 nM | 1000 to 10000 nM | < 5000 nM
